In patent US9714231B2, “Pyrrolidine GPR40 modulators” (BRISTOL-MYERS SQUIBB COMPANY, priority 2012, dated 2017):
Structures can show the parent of a compound that is named as a salt.

Biological target: human GPR40 (Homo sapiens, UniProt O14842)
Assay: FDSS-based intracellular calcium assay (Human GRP40 in vitro assay)
Assay type: cell-based
Design: 3xFLAG; expressed in transfected cells
Settings: cells expressing GPR40, intracellular Ca2+ response, FDSS reader; read-out: hGPR40 EC50
Experimental: To conduct the fluorescent imaging plate reader (FLIPR)-based calcium flux assay to measure intracellular Ca^2+ response, cells expressing GPR40 are plated on 384 well plates (BD BIOCOAT® #356697) at a density of 20,000 cells/20 μL medium per well in phenol red and serum-free DMEM (GIBCO® #21063-029) and incubated overnight. Using BD kit #s 80500-310 or -301, the cells are incubated with 20 μL per well of Hank's buffered salt solution with 1.7 mM probenecid and Fluo-3 at 37° C. for 30 min. Compounds are dissolved in DMSO and diluted to desired concentrations with assay buffer and added to the cells as 3× solution (20 μL per well). Run fluorescence/luminescence reader FDSS (Hamamatsu) to read intracellular Ca^2+ response.

Sequence of human GPR40 (O14842 whole entry): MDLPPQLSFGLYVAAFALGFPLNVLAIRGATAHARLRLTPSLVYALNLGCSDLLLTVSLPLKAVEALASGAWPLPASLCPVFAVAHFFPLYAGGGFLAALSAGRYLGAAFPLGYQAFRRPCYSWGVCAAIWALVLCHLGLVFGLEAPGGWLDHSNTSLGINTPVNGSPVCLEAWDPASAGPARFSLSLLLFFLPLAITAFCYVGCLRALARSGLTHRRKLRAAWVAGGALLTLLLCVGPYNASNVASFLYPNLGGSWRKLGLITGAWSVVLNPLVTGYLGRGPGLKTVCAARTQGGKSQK

SMILES	EC50 [nM]
CCOc1ccc(F)c(N2CCC(Oc3ccc(N4C[C@@H](OCc5ccccc5)C[C@@H]4CC(=O)O)cc3)CC2)c1 [Example 46, 2-((2R,4S)-4-(Benzyloxy)-1-(4-((1-(5-ethoxy-2-fluorophenyl)piperidin-4-yl)oxy)phenyl)pyrrolidin-2-yl)acetic acid, HCl]	650
COc1ccc(F)c(N2CCC(Oc3ccc(N4C[C@H](C(F)(F)F)C[C@@H]4CC(=O)O)cn3)CC2)c1 [Example 49, 2-((2R,4R)-1-(6-((1-(2-Fluoro-5-methoxyphenyl)piperidin-4-yl)oxy)pyridin-3-yl)-4-(trifluoromethyl)pyrrolidin-2-yl)acetic acid]	280
COc1ccc(F)c(N2CCC(Oc3ccc(N4C[C@H](C(F)(F)F)C[C@H]4CC(=O)O)cn3)CC2)c1 [Example 50, 2-((2S,4R)-1-(6-((1-(2-Fluoro-5-methoxyphenyl)piperidin-4-yl)oxy)pyridin-3-yl)-4-(trifluoromethyl)pyrrolidin-2-yl)acetic acid]	1500
COc1ccc(F)c(N2C[C@@H](C)[C@H](Oc3ccc(N4C[C@H](OC)C[C@@H]4CC(=O)O)cc3)[C@@H](C)C2)c1 [Example 55, 2-((2R,4R)-1-(4-(((3S,4R,5R)-1-(2-Fluoro-5-methoxyphenyl)-3,5-dimethylpiperidin-4-yl)oxy)phenyl)-4-methoxypyrrolidin-2-yl)acetic acid, HCl]	980
COc1ccc(F)c(N2C[C@@H](C)[C@@H](Oc3ccc(N4C[C@H](OC)C[C@@H]4CC(=O)O)cc3)[C@@H](C)C2)c1 [Example 56, 2-((2R,4R)-1-(4-(((3S,4S,5R)-1-(2-Fluoro-5-methoxyphenyl)-3,5-dimethylpiperidin-4-yl)oxy)phenyl)-4-methoxypyrrolidin-2-yl)acetic acid, HCl]	2500

Further lines, results first:

EC50 [nM]	SMILES
140	COc1ccc(Br)c(N2CCC(Oc3ccc(N4C[C@H](OC)C[C@@H]4CC(=O)O)cc3)CC2)c1 [Example 58, 2-((2R,4R)-1-(4-(1-(2-Bromo-5-methoxyphenyl)piperidin-4-yloxy)phenyl)-4-methoxypyrrolidin-2-yl)acetic acid, TFA]
190	COc1ccc(C(C)C)c(N2CCC(Oc3ccc(N4C[C@H](OC)C[C@@H]4CC(=O)O)cc3)CC2)c1 [Example 60, 2-((2R,4R)-1-(4-(1-(2-Isopropyl-5-methoxyphenyl)piperidin-4-yloxy)phenyl)-4-methoxypyrrolidin-2-yl)acetic acid, TFA]
2600	CO[C@@H]1C[C@H](CC(=O)O)N(c2ccc(OC3CCN(c4cc(OC(F)(F)F)ccc4F)CC3)cc2)C1 [Example 63, 2-((2R,4R)-1-(4-(1-(2-Fluoro-5-(trifluoromethoxy)phenyl)piperidin-4-yloxy)phenyl)-4-methoxypyrrolidin-2-yl)acetic acid, TFA]
1400	CCOc1ccc(F)c(N2CCC(Oc3ccc(N4C[C@H](Oc5ccccc5C#N)C[C@@H]4CC(=O)O)cc3)CC2)c1 [Example 66, 2-((2R,4R)-4-(2-Cyanophenoxy)-1-(4-(1-(5-ethoxy-2-fluorophenyl)piperidin-4-yloxy)phenyl)pyrrolidin-2-yl)acetic acid]
950	CCOc1ccc(F)c(N2CCC(Oc3ccc(N4C[C@H](Oc5ccccc5C)C[C@@H]4CC(=O)O)cc3)CC2)c1 [Example 67, 2-((2R,4R)-1-(4-(1-(5-Ethoxy-2-fluorophenyl)piperidin-4-yloxy)phenyl)-4-(o-tolyloxy)pyrrolidin-2-yl)acetic acid]
310	CCOc1ccc(F)c(N2CCC(Oc3ccc(N4C[C@H](Oc5cccc(C#N)c5)C[C@@H]4CC(=O)O)cc3)CC2)c1 [Example 68, 2-((2R,4R)-4-(3-Cyanophenoxy)-1-(4-(1-(5-ethoxy-2-fluorophenyl)piperidin-4-yloxy)phenyl)pyrrolidin-2-yl)acetic acid]
160	CCOc1ccc(F)c(N2CCC(Oc3ccc(N4C[C@H](Oc5cccc(Cl)c5)C[C@@H]4CC(=O)O)cc3)CC2)c1 [Example 69, 2-((2R,4R)-4-(3-Chlorophenoxy)-1-(4-(1-(5-ethoxy-2-fluorophenyl)piperidin-4-yloxy)phenyl)pyrrolidin-2-yl)acetic acid]
